Results: ChEMBL document CHEMBL4342436, “Artemisia: a promising plant for the treatment of cancer” (Bioorg Med Chem, 2020)
Converted amounts (≈) assume the structure as drawn.

Assays:
[1] = Cytotoxicity against human PG100 cells assessed as cell viability at 955.2 ug/mL after 24 hrs by MTT assay relative to control; type: functional; conditions: read-out: Activity
MCF7 [2] = test: Cytotoxicity against human MCF7 cells at 50 nM in presence of doxorubicin relative to control; type: functional
SK-N-AS = test: Induction of apoptosis in human SK-N-AS cells assessed as apoptotic cells at 300 uM after 72 hrs by Annexin V-FITC/propidium iodide staining based flow cytometric analysis relative to control; type: functional
BE(2)-C = test: Induction of apoptosis in human BE(2)-C cells assessed as apoptotic cells at 300 uM after 72 hrs by Annexin V-FITC/propidium iodide staining based flow cytometric analysis relative to control; type: functional
SK-N-DZ = test: Induction of apoptosis in human SK-N-DZ cells assessed as apoptotic cells at 300 uM after 72 hrs by Annexin V-FITC/propidium iodide staining based flow cytometric analysis relative to control; type: functional
[3] = Induction of apoptosis in human SH-EP1 cells assessed as apoptotic cells at 300 uM after 72 hrs by Annexin V-FITC/propidium iodide staining based flow cytometric analysis relative to control; type: functional
Lymphocyte [4] = test: Induction of apoptosis in human Lymphocyte cells assessed as apoptotic cells at 2 ug/ml after 24 hrs by Annexin V-FITC/propidium iodide staining based fluorescence microscopic method relative to control; type: cell-based
[5] = Cytotoxicity against rat pancreatic tumour cells assessed as reduction in cell viability after 24 hrs by MTT assay; type: functional, cell-based
[6] = Growth inhibition of human A375P cells at 150 uM after 72 hrs by MTT assay relative to control; type: functional; conditions: read-out: GI
[7] = Growth inhibition of human A375M cells at 150 uM after 72 hrs by MTT assay relative to control; type: functional; conditions: read-out: GI
HT-29 = test: Cytotoxicity against human HT-29 cells; type: functional; conditions: read-out: ED50 (the source's name)
P388 = test: Cytotoxicity against mouse P388 cells; type: functional; conditions: read-out: ED50 (the source's name)
MCF7 [8] = test: Cytotoxicity against human MCF7 cells; type: functional; conditions: read-out: ED50 (the source's name)
KB = test: Cytotoxicity against human KB cells; type: functional; conditions: read-out: ED50 (the source's name)
[9] = Antitumour activity against mouse mammary cancer cells transplanted in Balb/c mouse assessed as tumour size at 6 mg/kg, ip for 13 days; type: functional
C6 = test: Induction of apoptosis in rat C6 cells assessed as apoptotic cells at 200 uM after 24 hr in presence of holo-transferrin by Annexin V-FITC/propidium iodide staining based flow cytometric analysis relative to control; type: functional
U-937 [10] = test: Induction of apoptosis in human U937 cells assessed as increase in apoptotic cells at 60 uM after 24 hrs by Annexin V-FITC/propidium iodide staining based flow cytometric analysis relative to control; type: functional
U-937 [11] = test: Antitumour activity against human U937 cells xenografted in NOD/SCID mouse assessed as tumor growth inhibition at 50 mg/kg, ip for 20 days relative to control; type: functional; conditions: U-937, ip, 480 h, read-out: TGI
[12] = Cytotoxicity against human U373 cells assessed as reduction in cell viability after 24 hrs by MTT assay; type: functional, cell-based, U-373MG ATCC; conditions: U373 MG
[13] = Cytotoxicity against human U251/CP2 cells assessed as reduction in cell viability after 24 hrs by MTT assay; type: functional, cell-based; conditions: U-251, 24 h
HCT-116 = test: Induction of apoptosis in human HCT116 cells assessed as increase in apoptotic cells at 40 uM after 24 hrs by Annexin V-FITC/propidium iodide staining based flow cytometric analysis relative to control; type: functional
PC-14 = test: Induction of apoptosis in human PC14 cells assessed as increase in apoptotic cells at 30 uM after 24 hrs by Annexin V-FITC/propidium iodide staining based flow cytometric analysis relative to control; type: functional
BGC-823 = test: Cytotoxicity against human BGC823 assessed as cell viability at 160 mg/l after 48 hrs by MTT assay relative to control; type: functional; conditions: BGC-823, 48 h, read-out: Activity
HGC-27 = test: Cytotoxicity against human HGC27 assessed as cell viability at 160 mg/l after 48 hrs by MTT assay relative to control; type: functional; conditions: HGC-27, 48 h, read-out: Activity
MGC-803 = test: Cytotoxicity against human MGC803 assessed as cell viability at 160 mg/l after 48 hrs by MTT assay relative to control; type: functional; conditions: MGC-803, 48 h, read-out: Activity
Y79 = test: Induction of cell death in human Y79 cells by propidium iodide staining based flow cytometric analysis relative to control; type: functional
MG-63 [14] = test: Cytotoxicity against human MG63 cells assessed as cell viability after 48 hrs in presence of allicin by MTT assay relative to control; type: functional
U2OS = test: Cytotoxicity against human U2OS cells assessed as cell viability after 48 hrs in presence of allicin by MTT assay relative to control; type: functional
MG-63 [15] = test: Antitumour activity against human MG63 cells xenografted in nude BALB/c mouse assessed as tumour weight at […], ip for 5 days co-treated with allicin; type: functional
PANC-1 [16] = test: Cytotoxicity against human PANC1 cells assessed as cell viability after 24 hrs by MTT assay relative to control; type: functional
CFPAC-1 [17] = test: Cytotoxicity against human CFPAC-1 cells assessed as cell viability after 24 hrs by MTT assay relative to control; type: functional
PANC-1 [18] = test: Antitumour activity against human PANC1 cells xenografted in ip dosed nude BALB/c mouse assessed as tumor weight for 18 days; type: functional
CFPAC-1 [19] = test: Antitumour activity against human CFPAC-1 cells xenografted in ip dosed nude BALB/c mouse assessed as tumor weight for 18 days; type: functional
Lymphocyte [20] = test: Cytotoxicity against human lymphocytes; type: cell-based
H22 = test: Antitumour activity against mouse H22 cells transplanted in mouse assessed as tumour growth inhibition at 300 mg/kg after 7 days relative to control; type: functional; conditions: H22, 168 h, read-out: TGI
CCRF-CEM = test: Cytotoxicity against human CCRF-CEM cells; type: functional; conditions: read-out: ED50 (the source's name)
HL-60(TB) = test: Cytotoxicity against human HL-60(TB) cells; type: functional; conditions: read-out: ED50 (the source's name)
K562 = test: Cytotoxicity against human K562 cells; type: functional; conditions: read-out: ED50 (the source's name)
MKN-1 = test: Antiproliferative activity against human MKN1 cells assessed as reduction in cell viability after 24 hrs by CCK8 assay; type: functional, cell-based; conditions: MKN-1, 24 h
AGS = test: Antiproliferative activity against human AGS cells assessed as reduction in cell viability after 24 hrs by CCK8 assay; type: functional, cell-based
[21] = Antiproliferative activity against human SNU484 cells assessed as reduction in cell viability after 24 hrs by CCK8 assay; type: functional, cell-based; conditions: SNU-484, 24 h
[22] = Antiproliferative activity against human SNU601 cells assessed as reduction in cell viability after 24 hrs by CCK8 assay; type: functional, cell-based; conditions: SNU-601, 24 h
SNU-638 = test: Antiproliferative activity against human SNU638 cells assessed as reduction in cell viability after 24 hrs by CCK8 assay; type: functional, cell-based; conditions: SNU-638, 24 h
U-87 MG = test: Induction of apoptosis in human U87MG cells assessed as increase in apoptotic cells at 50 uM after 24 hrs by Annexin V-FITC/propidium iodide staining based flow cytometric analysis relative to control; type: functional, U-87MG ATCC
HL-60 = test: Antiproliferative activity against human HL60 cells assessed as cell viability at 150 uM by MTT assay relative to control; type: functional; conditions: read-out: Activity
MCF-10A = test: Induction of apoptosis n human MCF10A transformed with RAS gene at 100 uM by flow cytometric analysis relative to control; type: functional
THP-1 = test: Cytotoxicity against human THP1 cells after 48 hrs by trypan blue dye exclusion counting method; type: functional, cell-based; conditions: THP-1, 48 h
MCF7 [23] = test: Antiproliferative activity against human MCF7 cells assessed as reduction in cell viability after 48 hrs by MTT assay; type: functional, cell-based; conditions: MCF7, 48 h
BHY = test: Antiproliferative activity against human BHY cells assessed as reduction in cell viability after 48 hrs by MTT assay; type: functional, cell-based
MIA PaCa-2 = test: Antiproliferative activity against human MIAPaCa2 cells assessed as reduction in cell viability after 48 hrs by MTT assay; type: functional, cell-based; conditions: MIA PaCa-2, 48 h
COLO 205 = test: Antiproliferative activity against human COLO205 cells assessed as reduction in cell viability after 48 hrs by MTT assay; type: functional, cell-based; conditions: COLO 205, 48 h
A549 = test: Antiproliferative activity against human A549 cells assessed as reduction in cell viability after 48 hrs by MTT assay; type: functional, cell-based; conditions: A549, 48 h
B16-F10 = test: Cytotoxicity against mouse B16F10 cells assessed as reduction in cell viability incubated for 24 hrs by MTT assay; type: functional, cell-based; conditions: B16-F10, 24 h
A-431 = test: Cytotoxicity against human A431 cells assessed as reduction in cell viability incubated for 24 hrs by MTT assay; type: functional, cell-based; conditions: A-431, 24 h
[24] = Cytotoxicity against human 95-D cells by SRB assay; type: functional, cell-based

## CO[C@H]1O[C@@H]2O[C@@]3(C)CC[C@H]4[C@H](C)CC[C@@H]([C@H]1C)[C@@]24OO3
[1]
  viability at 955.2 µg/mL: 5.55%
MCF7 [2]
  Activity: 50%

## C[C@@H]1CC[C@H]2[C@@H](C)C(=O)O[C@@H]3O[C@@]4(C)CC[C@@H]1[C@]32OO4 [ARTEMISININ]
SK-N-AS
  Activity: 22%
BE(2)-C
  Activity: 42%
SK-N-DZ
  Activity: 40%
[3]
  Activity: 23%
Lymphocyte [4]
  Activity: 70%
[5]
  IC50: 45 µM
[6]
  inhibition of growth at 150 µM: 68%
[7]
  inhibition of growth at 150 µM: 60%
HT-29
  EC50: 1.25 to 9.62 µg/mL (≈ 4.43 to 34.1 µM)
P388
  EC50: 1.25 to 9.62 µg/mL (≈ 4.43 to 34.1 µM)
MCF7 [8]
  EC50: 1.25 to 9.62 µg/mL (≈ 4.43 to 34.1 µM)
KB
  EC50: 1.25 to 9.62 µg/mL (≈ 4.43 to 34.1 µM)

## CCO[C@H]1O[C@@H]2O[C@@]3(C)CC[C@H]4[C@H](C)CC[C@@H]([C@H]1C)[C@@]24OO3 [ARTEMOTIL]
[9]
  Activity: 800 mm3

## C[C@H]1[C@@H](O)O[C@@H]2O[C@@]3(C)CC[C@H]4[C@H](C)CC[C@@H]1[C@@]24OO3 [ARTENIMOL]
C6
  Activity: 66.42%
U-937 [10]
  Activity: 70%
U-937 [11]
  inhibition in vivo at 50 mg/kg: 70%
[12]
  IC50: 1.17 to 23.6 µg/mL (≈ 4.11 to 82.9 µM)
[13]
  IC50: 1.17 to 23.6 µg/mL (≈ 4.11 to 82.9 µM)
HCT-116
  Activity: 48.3%
PC-14
  Activity: 45%

## C[C@H]1[C@H](OC(=O)CCC(=O)O)O[C@@H]2O[C@@]3(C)CC[C@H]4[C@H](C)CC[C@@H]1[C@@]24OO3 [ARTESUNATE]
BGC-823
  viability at 160 µg/mL: < 20%
HGC-27
  viability at 160 µg/mL: < 20%
MGC-803
  viability at 160 µg/mL: < 20%
Y79
  Activity: 80%
MG-63 [14]
  Activity: <25%
U2OS
  Activity: <25%
MG-63 [15]
  Activity: <0.5 g
PANC-1 [16]
  Activity: <10%
CFPAC-1 [17]
  Activity: <10%
PANC-1 [18]
  Activity: <0.4 g
CFPAC-1 [19]
  Activity: <0.4 g
Lymphocyte [20]
  IC50: 80 µM
H22
  inhibition in vivo at 300 mg/kg: 49.1%

## C=C1C(=O)O[C@@H]2O[C@@]3(C)CC[C@H]4[C@H](C)CC[C@@H]1[C@@]24O3 [DEOXYARTEMISITENE]
CCRF-CEM
  EC50: 0.92 µg/mL (≈ 3.48 µM)
HL-60(TB)
  EC50: 0.62 µg/mL (≈ 2.35 µM)
K562
  EC50: 0.94 µg/mL (≈ 3.56 µM)

## COc1ccc(-c2cc(=O)c3c(O)c(OC)c(O)cc3o2)cc1OC [EUPATILIN]
MKN-1
  IC50: 50 to 100 µM
AGS
  IC50: 50 to 100 µM
[21]
  IC50: 50 to 100 µM
[22]
  IC50: 50 to 100 µM
SNU-638
  IC50: 50 to 100 µM
U-87 MG
  Activity: 40%
HL-60
  viability at 150 µM: 50%

## COc1cc(-c2cc(=O)c3c(O)c(OC)c(O)cc3o2)ccc1O [JACEOSIDINE]
MCF-10A
  Activity: 48.72%
THP-1
  IC50: 70.5 µM

## C=C1C(=O)O[C@H]2[C@H]1CCC(C)=C1C[C@H]3O[C@@]3(C)[C@@H]12 [LUDARTIN]
MCF7 [23]
  IC50: 25.2 to 88.1 µM
BHY
  IC50: 25.2 to 88.1 µM
MIA PaCa-2
  IC50: 25.2 to 88.1 µM
COLO 205
  IC50: 25.2 to 88.1 µM
A549
  IC50: 25.2 to 88.1 µM
B16-F10
  IC50: 6.6 µM
A-431
  IC50: 19 µM

## CC1(C)CCC[C@@]2(C)[C@H]1[C@H](O)C=C1COC(=O)[C@@]12O [STROBILACTONE A]
[24]
  IC50: 19.8 µM
